Here are results for 53 molecules from article PMC7921063, “The Effects of Genetic Mutations and Drugs on the Activity of the Thiamine Transporter, SLC19A2” (The AAPS Journal, 2021).

Some results are limits rather than exact numbers.

One test deals with T1, SLC19A2 (Homo sapiens, UniProt O60779).
T1 sequence (O60779 1-497): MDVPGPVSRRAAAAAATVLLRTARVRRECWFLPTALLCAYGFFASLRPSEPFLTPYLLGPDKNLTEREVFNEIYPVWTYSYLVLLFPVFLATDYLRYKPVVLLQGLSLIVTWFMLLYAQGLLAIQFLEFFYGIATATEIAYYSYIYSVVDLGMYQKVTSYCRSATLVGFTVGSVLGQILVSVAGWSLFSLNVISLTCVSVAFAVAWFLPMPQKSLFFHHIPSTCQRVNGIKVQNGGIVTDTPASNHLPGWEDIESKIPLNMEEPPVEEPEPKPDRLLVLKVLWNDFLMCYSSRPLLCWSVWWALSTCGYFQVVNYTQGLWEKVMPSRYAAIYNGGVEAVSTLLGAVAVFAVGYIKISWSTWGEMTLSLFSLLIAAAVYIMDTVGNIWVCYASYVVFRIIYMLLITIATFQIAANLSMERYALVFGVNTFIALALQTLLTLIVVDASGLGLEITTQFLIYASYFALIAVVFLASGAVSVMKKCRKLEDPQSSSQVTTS
As to the kind of experiment: SLC19A2 inhibitor screen: [3H]-thiamine uptake in SLC19A2-overexpressing HEK293 cells. The test is classed as cell-based. More on the design: host or cells: HEK293, stably overexpressing SLC19A2 and transiently transfected with a further 500 ng wild-type plasmid. The note with it: HEK293, 10 min, drug 1 mM, [3H]-thiamine 25 nM, 10 min, HEK293 cells expressing SLC19A2; relative to uptake without inhibitor; read-out: Average % SLC19A2 thiamine uptake. The method, then: Plasmids encoding wild-type SLC19A2 and three TRMA-associated variants were generated by Genscript Inc. (Piscataway, USA). Methods for generation of stably overexpressing SLC19A2 cell lines and uptake studies have been previously described ([11], [12]). Inhibition and kinetic studies were performed in SLC19A2-overexpressing stable HEK293 cells transiently transfected with an additional 500 ng of SLC19A2 wild-type plasmid.
Prescription drugs associated with MA ([2]) in addition to others belonging to listed drug classes (e.g., proton-pump inhibitors; 63 compounds total) were screened in triplicate at 1 mM to evaluate inhibitory activity against SLC19A2. […] Each plate contained control wells exposed for 10 min (within linear range, Supplemental Figure 1) to [^3H]-thiamine (positive control), [^3H]-thiamine plus 1 mM of amprolium (negative control), and [^3H]-thiamine plus 1 mM of screened drug (3 replicates per drug). Methods have been previously described ([11]). SLC19A2 inhibitors were defined as compounds that decreased SLC19A2-mediated thiamine uptake by 50% or more at 1 mM. For compounds that met this definition, inhibition assays were conducted and IC50 values were calculated by nonlinear fitting using GraphPad Prism 7 (La Jolla, CA) ([11]).
Fig. 3 Common mechanisms of drug-induced megaloblastic anemia and SLC19A2 inhibitor drug screen workflow. A list of drugs associated with inducing megaloblastic anemia through various mechanisms was compiled (a). Each drug was dissolved to a final concentration of 1 mM in buffer containing radiolabeled [^3H] thiamine and exposed to HEK293 cells expressing SLC19A2 wild-type transporter for 10 min.
Turning to `Nc1ccc(O)c(C(=O)O)c1` [5-aminosalicylic acid], the remaining activity at 1000 µM was 87.7%.

With `O=c1[nH]cc(F)c(=O)[nH]1` [5-fluorouracil], the remaining activity at 1000 µM was found to be 93.8%.

`Oc1ncnc2[nH]ncc12` [Allopurinol]: the remaining activity at 1000 µM was 96.9%.

On to `NCC[C@H](O)C(=O)N[C@@H]1C[C@H](N)[C@@H](O[C@H]2O[C@H](CN)[C@@H](O)[C@H](O)[C@H]2O)[C@H](O)[C@H]1O[C@H]1O[C@H](CO)[C@@H](O)[C@H](N)[C@H]1O` [Amikacin], for which the remaining activity at 1000 µM came to 98.7%.

With `Nc1nc(N)c2nc(CNc3ccc(C(=O)N[C@@H](CCC(=O)O)C(=O)O)cc3)cnc2n1` [Aminopterin], the remaining activity at 1000 µM amounted to 93%.

`CC1(C)S[C@@H]2[C@H](NC(=O)[C@H](N)c3ccc(O)cc3)C(=O)N2[C@H]1C(=O)O` [Amoxicillin]: the remaining activity at 1000 µM was 95.9%.

On to `CO[C@H]1O[C@@H]2O[C@@]3(C)CC[C@H]4[C@H](C)CC[C@@H]([C@H]1C)[C@@]24OO3` [Artemether], for which the remaining activity at 1000 µM was 67.4%.

For `Cn1cnc([N+](=O)[O-])c1Sc1ncnc2nc[nH]c12` [Azathioprine], the remaining activity at 1000 µM is 87.2%.

Turning to `CC[C@H]1OC(=O)[C@H](C)[C@@H](O[C@H]2C[C@@](C)(OC)[C@@H](O)[C@H](C)O2)[C@H](C)[C@@H](O[C@@H]2O[C@H](C)C[C@H](N(C)C)[C@H]2O)[C@](C)(O)C[C@@H](C)CN(C)[C@H](C)[C@@H](O)[C@]1(C)O` [Azithromycin], the remaining activity at 1000 µM stood at 81.9%.

Take `CC1(C)S[C@@H]2[C@H](NC(=O)C(C(=O)O)c3ccccc3)C(=O)N2[C@H]1C(=O)O` (stereo partly shown) [Carbenicillin]: the remaining activity at 1000 µM was found to be 90.8%.

As for `O=C(N[C@H](CO)[C@H](O)c1ccc([N+](=O)[O-])cc1)C(Cl)Cl` [Chloramphenicol], the remaining activity at 1000 µM came out at 91.5%.

Consider `CN/C(=N/CCSCc1nc[nH]c1C)NC#N` [Cimetidine], for which the remaining activity at 1000 µM is 107%.

On to `CC[C@H]1OC(=O)[C@H](C)[C@@H](O[C@H]2C[C@@](C)(OC)[C@@H](O)[C@H](C)O2)[C@H](C)[C@@H](O[C@@H]2O[C@H](C)C[C@H](N(C)C)[C@H]2O)[C@](C)(OC)C[C@@H](C)C(=O)[C@H](C)[C@@H](O)[C@]1(C)O` [Clarithromycin], for which the remaining activity at 1000 µM is 58.2%.

With `C[C@H]1c2cccc(O)c2C(=O)C2=C(O)[C@]3(O)C(=O)C(C(N)=O)=C(O)[C@@H](N(C)C)[C@@H]3[C@@H](O)[C@@H]21` [Doxycycline], the remaining activity at 1000 µM is 67.8%.

On to `COc1ccc2nc([S@@+]([O-])Cc3ncc(C)c(OC)c3C)[nH]c2c1` [Esomeprazole], for which the remaining activity at 1000 µM was determined as 57.7%.

With `C[C@]12CC[C@@H]3c4ccc(O)cc4CC[C@H]3[C@@H]1CC[C@@H]2O` [Estradiol], the remaining activity at 1000 µM worked out at 112%.

With `NC(N)=Nc1nc(CSCCC(N)=NS(N)(=O)=O)cs1` [Famotidine], the remaining activity at 1000 µM amounted to 74%.

Take `Cc1cnc(Nc2ccc(OCCN3CCCC3)cc2)nc1Nc1cccc(S(=O)(=O)NC(C)(C)C)c1` [Fedratinib]: the remaining activity at 1000 µM came to 21%.

Turning to `Nc1nc(F)nc2c1ncn2[C@@H]1O[C@H](CO)[C@@H](O)[C@@H]1O` [Fludarabine], the remaining activity at 1000 µM amounted to 71.1%.

Regarding `Nc1ccn([C@@H]2O[C@H](CO)[C@@H](O)C2(F)F)c(=O)n1` [Gemcitabine], the remaining activity at 1000 µM amounted to 63.3%.

As to `CNC(C)C1CCC(N)C(OC2C(N)CC(N)C(OC3OCC(C)(O)C(NC)C3O)C2O)O1` (stereo not shown) [Gentamicin], the remaining activity at 1000 µM was 81.9%.

As for `NNC(=O)c1ccncc1` [Isoniazid], the remaining activity at 1000 µM came out at 108%.

For the molecule `Cc1c(OCC(F)(F)F)ccnc1C[S+]([O-])c1nc2ccccc2[nH]1` (stereo not shown) [Lansoprazole], the remaining activity at 1000 µM turned out to be 45.9%.

As to `Cc1oncc1C(=O)Nc1ccc(C(F)(F)F)cc1` [Leflunomide], the remaining activity at 1000 µM amounted to 57.7%.

Take `CC(=O)NC[C@H]1CN(c2ccc(N3CCOCC3)c(F)c2)C(=O)O1` [Linezolid]: the remaining activity at 1000 µM is 77.7%.

Consider `S=c1[nH]cnc2nc[nH]c12` [Mercaptopurine], for which the remaining activity at 1000 µM was determined as 90.5%.

As for `CN(C)C(=N)N=C(N)N` [Metformin], the remaining activity at 1000 µM amounted to 74.2%.

For `CN(Cc1cnc2nc(N)nc(N)c2n1)c1ccc(C(=O)N[C@@H](CCC(=O)O)C(=O)O)cc1` [Methotrexate], the remaining activity at 1000 µM worked out at 84.9%.

On to `COc1c(C)c2c(c(O)c1C/C=C(\C)CCC(=O)O)C(=O)OC2` [Mycophenolic acid], for which the remaining activity at 1000 µM was 82.7%.

With `Cc1onc(-c2ccccc2)c1C(=O)N[C@@H]1C(=O)N2[C@@H]1SC(C)(C)[C@@H]2C(=O)O` [Oxacillin], the remaining activity at 1000 µM was found to be 110%.

Take `[H]/N=C(/N)N/C(=N/[H])NCCc1ccccc1` [Phenformin]: the remaining activity at 1000 µM was determined as 82.3%.

As to `O=C1NC(=O)C(c2ccccc2)(c2ccccc2)N1` [Phenytoin], the remaining activity at 1000 µM came out at 75%.

As to `COc1cc(NC(C)CCCN)c2ncccc2c1` (stereo not shown) [Primaquine], the remaining activity at 1000 µM worked out at 76.5%.

With `[H]/N=C(\N/C(=N/[H])Nc1ccc(Cl)cc1)NC(C)C` [Proguanil], the remaining activity at 1000 µM is 68.8%.

Consider `CCc1nc(N)nc(N)c1-c1ccc(Cl)cc1` [Pyrimethamine], for which the remaining activity at 1000 µM worked out at 99.2%.

With `C=C[C@H]1C[N@@]2CC[C@H]1C[C@@H]2[C@@H](O)c1ccnc2ccc(OC)cc12` [Quinidine], the remaining activity at 1000 µM stood at 53%.

Turning to `C=C[C@H]1C[N@@]2CC[C@H]1C[C@H]2[C@H](O)c1ccnc2ccc(OC)cc12` [Quinine], the remaining activity at 1000 µM was found to be 69.7%.

As to `COCCCOc1ccnc(C[S+]([O-])c2nc3ccccc3[nH]2)c1C` (stereo not shown) [Rabeprazole], the remaining activity at 1000 µM was 75.3%.

Take `Cc1nc2ccc(CN(C)c3ccc(C(=O)N[C@@H](CCC(=O)O)C(=O)O)s3)cc2c(=O)[nH]1` [Raltitrexed]: the remaining activity at 1000 µM was 88.2%.

Take `CNC(=C[N+](=O)[O-])NCCSCc1ccc(CN(C)C)o1` [Ranitidine]: the remaining activity at 1000 µM is 111%.

For `CO[C@H]1/C=C/O[C@@]2(C)Oc3c(C)c(O)c4c(O)c(c(/C=N/N5CCN(C)CC5)c(O)c4c3C2=O)NC(=O)/C(C)=C\C=C\[C@H](C)[C@H](O)[C@@H](C)[C@@H](O)[C@@H](C)[C@H](OC(C)=O)[C@@H]1C` [Rifampicin], the remaining activity at 1000 µM stood at 56.1%.

In the case of `COc1ncnc(NS(=O)(=O)c2ccc(N)cc2)c1OC` [Sulfadoxine], the remaining activity at 1000 µM is 94.8%.

`O=C(O)c1cc(/N=N/c2ccc(S(=O)(=O)Nc3ccccn3)cc2)ccc1O` [Sulfasalazine]: the remaining activity at 1000 µM came out at 101%.

Consider `C/C(O)=C(\C#N)C(=O)Nc1ccc(C(F)(F)F)cc1` [Teriflunomide], for which the remaining activity at 1000 µM was found to be 95.7%.

For the molecule `CN(C)[C@@H]1C(O)=C(C(N)=O)C(=O)[C@@]2(O)C(O)=C3C(=O)c4c(O)cccc4[C@@](C)(O)[C@H]3C[C@@H]12` [Tetracycline], the remaining activity at 1000 µM was found to be 83.6%.

For `Nc1nc2nc[nH]c2c(=S)[nH]1` [Thioguanine], the remaining activity at 1000 µM was found to be 93.3%.

Consider `Nc1nc(N)c2nc(-c3ccccc3)c(N)nc2n1` [Triamterene], for which the remaining activity at 1000 µM is 111%.

Still in this test, the particulars now being: HEK293, 10 min, read-out: Average % SLC19A2 thiamine uptake.
Regarding `CC1(C)S[C@@H]2[C@H](NC(=O)[C@H](N)c3ccccc3)C(=O)N2[C@H]1C(=O)O` [Ampicillin], the remaining activity at 1000 µM came to 102%.

For `COc1cc2c(c(OC)c1OC)-c1ccc(OC)c(=O)cc1[C@@H](NC(C)=O)CC2` [Colchicine], the remaining activity at 1000 µM amounted to 95.9%.

Still in this test, the particulars now being: HEK293, 10 min; at 1 mM; read-out: reduction in thiamine transport (designated SLC19A2 inhibitor).
Take `Cc1cnc(Nc2ccc(OCCN3CCCC3)cc2)nc1Nc1cccc(S(=O)(=O)NC(C)(C)C)c1` [Fedratinib]: the inhibition at 1000 µM was not below 50%.

Regarding `Cc1c(OCC(F)(F)F)ccnc1C[S+]([O-])c1nc2ccccc2[nH]1` (stereo not shown) [Lansoprazole], the inhibition at 1000 µM is not below 50%.

Staying with this test, now noted: drug 1 mM, [3H]-thiamine 25 nM, 10 min, HEK293 cells expressing SLC19A2; relative to uptake without inhibitor.
With `NC(=O)NO` [Hydroxyurea], the “Average % SLC19A2 thiamine uptake” value is reported as 105.5%.

In the case of `CCCCN(CCCC)CC(O)c1cc(Cl)cc2c1-c1ccc(Cl)cc1/C2=C/c1ccc(Cl)cc1` (stereo not shown) [Lumafantrine], the “Average % SLC19A2 thiamine uptake” value is 87.72%.

For the molecule `O=C1CN(/N=C/c2ccc([N+](=O)[O-])o2)C(=O)N1` [Nitrofuranatoin], the “Average % SLC19A2 thiamine uptake” value worked out at 101.075%.

Take Neomycin: the “Average % SLC19A2 thiamine uptake” value stood at 86.37%.
